The source made the active and inactive calls. The rule behind the calls is not given here.
Experiments:
[1] = Tmax in Sprague-Dawley rat at 25 mg/kg, po; format: ADME, organism-based; details: in vivo
[2] = tested on: Receptor-type tyrosine-protein kinase FLT3 (Homo sapiens), P36888 [UNDEFINED MUTATION]; assay: Inhibition of FLT3 ITD mutant expressed in human MV4-11 cells assessed as reduction in FLT3 phosphorylation at 0.8 to 500 nM incubated for 6 hrs by Western blot analysis; format: cell-based
[3] = molecular target: Macrophage colony-stimulating factor 1 receptor (Homo sapiens, UniProt P07333); assay: Binding affinity to recombinant human CSF1R (564 to 939 residues) expressed in bacterial expression system by Kinomescan method
[4] = Oral bioavailability in Sprague-Dawley rat at 25 mg/kg; format: ADME, organism-based; details: in vivo
KG-1 = assay: cells; details: Homo sapiens, KG-1, 72 h
Description: Cytotoxicity against human KG1 cells assessed as reduction in cell viability incubated for 72 hrs by CCK8 assay

MV4-11 [5] = assay: Induction of cell cycle arrest in human MV4-11 cells assessed as G0/G1 phase at 100 nM incubated for 48 hrs by propidium iodide staining based flow cytometry analysis (reference value: 54.82 %); format: functional
[6] = Half life in Sprague-Dawley rat at 5 mg/kg, iv; format: ADME, organism-based; details: in vivo
MV4-11 [7] = assay: Induction of apoptosis in human MV4-11 cells assessed as viable cells at 100 nM incubated for 48 hrs by annexin V and 7-AAD staining based flow cytometry analysis (reference value: 90.47 %); format: functional; details: MV4-11, 48 h, read-out: Activity
MV4-11 [8] = assay: Induction of cell cycle arrest in human MV4-11 cells assessed as G0/G1 phase at 20 nM incubated for 48 hrs by propidium iodide staining based flow cytometry analysis (reference value: 54.82 %); format: functional
MV4-11 [9] = assay: Antitumor activity at human MV4-11 cells xenografted in CB17-SCID mouse assessed as tumor growth inhibition at 40 mg/kg, po administered for 10 days and measured on day 10 relative to control; format: functional; details: MV4-11, po, 240 h, read-out: TGI
MV4-11 [10] = assay: Induction of apoptosis in human MV4-11 cells assessed as early apoptotic cells at 100 nM incubated for 48 hrs by annexin V and 7-AAD staining based flow cytometry analysis (reference value: 6.36 %); format: functional
[11] = molecular target: Receptor-type tyrosine-protein kinase FLT3 (Homo sapiens) (UniProt P36888); assay: Inhibition of FLT3 in human NB4 cells assessed as reduction in FLT3 phosphorylation at 0.8 to 500 nM incubated for 6 hrs by Western blot analysis; format: cell-based; details: NB-4
MV4-11 [12] = assay: Induction of cell cycle arrest in human MV4-11 cells assessed as G2/M phase at 20 nM incubated for 48 hrs by propidium iodide staining based flow cytometry analysis (reference value: 24.88 %); format: functional
[13] = molecular target: T1, Receptor-type tyrosine-protein kinase FLT3 (Homo sapiens, UniProt P36888)
T1 sequence (P36888 whole entry): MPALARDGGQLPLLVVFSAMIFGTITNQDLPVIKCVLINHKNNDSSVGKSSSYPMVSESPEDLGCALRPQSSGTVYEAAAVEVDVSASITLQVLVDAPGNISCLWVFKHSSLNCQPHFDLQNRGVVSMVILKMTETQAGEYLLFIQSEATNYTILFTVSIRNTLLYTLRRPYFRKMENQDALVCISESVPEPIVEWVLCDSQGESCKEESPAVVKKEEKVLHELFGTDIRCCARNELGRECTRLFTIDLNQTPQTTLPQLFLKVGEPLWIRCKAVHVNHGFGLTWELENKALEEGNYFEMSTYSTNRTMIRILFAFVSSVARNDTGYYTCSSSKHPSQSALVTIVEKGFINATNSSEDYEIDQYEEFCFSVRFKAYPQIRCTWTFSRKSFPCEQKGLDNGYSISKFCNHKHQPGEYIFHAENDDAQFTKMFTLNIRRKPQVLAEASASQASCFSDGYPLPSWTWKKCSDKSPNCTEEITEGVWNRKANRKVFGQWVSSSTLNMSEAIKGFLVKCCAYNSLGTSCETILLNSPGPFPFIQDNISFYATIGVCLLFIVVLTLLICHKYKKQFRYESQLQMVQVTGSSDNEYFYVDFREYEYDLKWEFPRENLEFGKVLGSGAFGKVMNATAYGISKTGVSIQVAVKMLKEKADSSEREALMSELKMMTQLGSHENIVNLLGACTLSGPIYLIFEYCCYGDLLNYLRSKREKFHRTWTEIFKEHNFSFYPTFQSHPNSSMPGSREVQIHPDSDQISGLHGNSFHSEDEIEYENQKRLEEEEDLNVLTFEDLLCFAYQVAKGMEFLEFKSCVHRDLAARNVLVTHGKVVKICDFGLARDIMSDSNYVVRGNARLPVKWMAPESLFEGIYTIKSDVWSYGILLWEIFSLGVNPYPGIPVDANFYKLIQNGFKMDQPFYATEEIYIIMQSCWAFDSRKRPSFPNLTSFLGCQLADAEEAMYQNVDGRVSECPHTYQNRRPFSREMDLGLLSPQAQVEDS
Description: Binding affinity to recombinant human FLT3 (592 to 969 residues) expressed in bacterial expression system by Kinomescan method

[14] = molecular target: Platelet-derived growth factor receptor beta (Homo sapiens, UniProt P09619)
Description: Binding affinity to recombinant human PDGFRB (582 to 1009 residues) expressed in bacterial expression system by Kinomescan method

[15] = Tmax in Sprague-Dawley rat at 5 mg/kg, iv; format: ADME, organism-based; details: in vivo
MV4-11 [16] = assay: Induction of cell cycle arrest in human MV4-11 cells assessed as reduction in Cyclin D2 expression at 0.16 to 100 nM by Western blot analysis; format: functional, cell-based
[17] = AUC in Sprague-Dawley rat at 25 mg/kg, po; format: ADME, organism-based; details: in vivo
in vitro = details: mouse, BaF3 cells
Description: Cytotoxicity against human BAF3 cells assessed as growth inhibition incubated for 72 hrs by CCK8 assay

[18] = Clearance in Sprague-Dawley rat at 25 mg/kg, po; format: ADME, organism-based; details: in vivo
MV4-11 [19] = assay: Induction of cell cycle arrest in human MV4-11 cells assessed as G2/M phase at 4 nM incubated for 48 hrs by propidium iodide staining based flow cytometry analysis (reference value: 24.88 %); format: functional
MV4-11 [20] = assay: Induction of apoptosis in human MV4-11 cells assessed as increase in Caspase-9 cleavage at 0.16 to 100 nM by Western blot analysis; format: functional, cell-based
HL-60 = assay: cells; details: Homo sapiens, HL-60, 72 h
Description: Cytotoxicity against human HL60 cells assessed as reduction in cell viability incubated for 72 hrs by CCK8 assay

MOLM-13 = assay: cells; details: Homo sapiens, MOLM-13, 72 h
Description: Cytotoxicity against human MOLM13 cells assessed as reduction in cell viability incubated for 72 hrs by CCK8 assay

MV4-11 [21] = assay: Induction of apoptosis in human MV4-11 cells assessed as late apoptotic cells at 100 nM incubated for 48 hrs by annexin V and 7-AAD staining based flow cytometry analysis (reference value: 2.25 %); format: functional
MV4-11 [22] = assay: Induction of apoptosis in human MV4-11 cells assessed as late apoptotic cells at 4 nM incubated for 48 hrs by annexin V and 7-AAD staining based flow cytometry analysis (reference value: 2.25 %); format: functional
[23] = tested on: Receptor-type tyrosine-protein kinase FLT3 (Homo sapiens), P36888 [UNDEFINED MUTATION]; assay: Inhibition of FLT3 ITD mutant expressed in human MV4-11 cells assessed as reduction in STAT5 level at > 20 nM incubated for 6 hrs by Western blot analysis relative to control; format: cell-based
MV4-11 [24] = assay: Induction of apoptosis in human MV4-11 cells assessed as viable cells at 20 nM incubated for 48 hrs by annexin V and 7-AAD staining based flow cytometry analysis (reference value: 90.47 %); format: functional; details: MV4-11, 48 h, read-out: Activity

Chain of Platelet-derived growth factor receptor beta (P09619 whole entry): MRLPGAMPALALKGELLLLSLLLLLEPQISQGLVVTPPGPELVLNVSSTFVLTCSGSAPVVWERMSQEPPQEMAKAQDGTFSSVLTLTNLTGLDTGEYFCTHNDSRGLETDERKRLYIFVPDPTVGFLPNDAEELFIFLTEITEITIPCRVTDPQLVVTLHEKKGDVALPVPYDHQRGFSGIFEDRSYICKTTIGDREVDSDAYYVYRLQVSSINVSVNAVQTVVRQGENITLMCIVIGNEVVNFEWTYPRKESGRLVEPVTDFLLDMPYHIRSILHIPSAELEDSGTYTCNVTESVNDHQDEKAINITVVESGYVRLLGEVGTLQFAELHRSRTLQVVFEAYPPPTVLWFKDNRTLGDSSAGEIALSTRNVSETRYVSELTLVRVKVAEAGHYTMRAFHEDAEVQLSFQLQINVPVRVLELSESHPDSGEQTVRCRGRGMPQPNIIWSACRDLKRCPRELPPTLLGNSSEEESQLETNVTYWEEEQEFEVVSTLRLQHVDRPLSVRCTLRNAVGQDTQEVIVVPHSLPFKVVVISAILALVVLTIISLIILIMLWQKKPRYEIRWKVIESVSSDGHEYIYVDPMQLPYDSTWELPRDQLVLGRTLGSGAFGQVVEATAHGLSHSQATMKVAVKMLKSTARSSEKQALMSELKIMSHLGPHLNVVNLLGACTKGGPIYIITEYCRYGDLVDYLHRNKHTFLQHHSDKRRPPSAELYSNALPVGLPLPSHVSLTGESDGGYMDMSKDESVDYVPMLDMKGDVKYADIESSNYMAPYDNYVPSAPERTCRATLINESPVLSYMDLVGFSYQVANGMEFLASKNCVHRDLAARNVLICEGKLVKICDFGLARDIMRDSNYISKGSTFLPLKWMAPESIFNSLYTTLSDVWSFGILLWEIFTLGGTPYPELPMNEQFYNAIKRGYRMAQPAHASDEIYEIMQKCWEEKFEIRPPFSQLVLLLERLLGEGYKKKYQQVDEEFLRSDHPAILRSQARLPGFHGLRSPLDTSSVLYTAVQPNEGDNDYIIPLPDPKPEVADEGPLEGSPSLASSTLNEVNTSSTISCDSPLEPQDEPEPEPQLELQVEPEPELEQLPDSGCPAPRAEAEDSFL
Chain of Macrophage colony-stimulating factor 1 receptor (P07333 whole entry, the tested form may be a part): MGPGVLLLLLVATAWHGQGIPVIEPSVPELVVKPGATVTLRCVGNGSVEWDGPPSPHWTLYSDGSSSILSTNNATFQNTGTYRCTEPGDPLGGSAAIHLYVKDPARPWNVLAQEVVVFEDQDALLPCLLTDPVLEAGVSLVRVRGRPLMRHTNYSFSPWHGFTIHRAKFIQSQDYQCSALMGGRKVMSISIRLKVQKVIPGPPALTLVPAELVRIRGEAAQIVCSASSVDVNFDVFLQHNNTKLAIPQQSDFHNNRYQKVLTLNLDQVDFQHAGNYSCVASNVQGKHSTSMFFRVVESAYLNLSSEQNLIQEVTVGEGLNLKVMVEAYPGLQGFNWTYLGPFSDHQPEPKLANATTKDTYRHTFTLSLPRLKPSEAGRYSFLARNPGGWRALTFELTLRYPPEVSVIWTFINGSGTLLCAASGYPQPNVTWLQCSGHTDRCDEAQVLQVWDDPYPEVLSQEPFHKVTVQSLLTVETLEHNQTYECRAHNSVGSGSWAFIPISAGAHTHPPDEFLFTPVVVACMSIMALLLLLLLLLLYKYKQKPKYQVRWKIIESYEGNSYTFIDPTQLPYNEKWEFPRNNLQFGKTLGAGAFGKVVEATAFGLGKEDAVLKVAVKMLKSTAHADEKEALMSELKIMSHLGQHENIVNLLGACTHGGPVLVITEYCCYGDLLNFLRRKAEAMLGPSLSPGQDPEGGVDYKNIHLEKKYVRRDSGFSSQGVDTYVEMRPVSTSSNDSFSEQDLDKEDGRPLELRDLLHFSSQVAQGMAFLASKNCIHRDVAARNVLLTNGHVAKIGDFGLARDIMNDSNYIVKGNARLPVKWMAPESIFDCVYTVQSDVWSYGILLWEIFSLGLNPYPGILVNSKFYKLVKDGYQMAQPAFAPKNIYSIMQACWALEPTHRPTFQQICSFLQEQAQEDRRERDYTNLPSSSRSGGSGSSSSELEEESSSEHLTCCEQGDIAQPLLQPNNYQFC

CC(C)(C)c1cc(NC(=O)Nc2ccc(-c3cn(-c4ccc(OCCN5CCOCC5)cc4Cl)nn3)cc2)no1
Tmax [1]: 4 h
inhibition [2]: Active
Kd [3]: 100 nM
bioavailability [4]: 35.8%
GI50 (KG-1): > 3000 nM
Activity (MV4-11 [5]): 89.92%
half-life [6]: 307 min
viability at 0.1 µM (MV4-11 [7]): 71.6%
Activity (MV4-11 [8]): 87.8%
inhibition in vivo at 40 mg/kg (MV4-11 [9]): 80.1%
Activity (MV4-11 [10]): 13.06%
inhibition [11]: inactive
Activity (MV4-11 [12]): 6.53%
Kd [13]: 3.5 nM
Kd [14]: 8.1 nM
Tmax [15]: 15 min
Activity (MV4-11 [16]): Active
AUC [17]: 41300 ng·h/mL
GI50 at 72 h (in vitro): > 3000 nM
CL/F [18]: 10.6 mL/min/kg
Activity (MV4-11 [19]): 18.42%
Activity (MV4-11 [20]): Active
GI50 (HL-60): > 3000 nM
GI50 (MOLM-13): 5.9 nM
Activity (MV4-11 [21]): 12.1%
Activity (MV4-11 [22]): 2.64%
inhibition [23]: 100%
viability at 0.02 µM (MV4-11 [24]): 84%

— ChEMBL document CHEMBL4619814, “Identification and Development of 1,4-Diaryl-1,2,3-triazolo-Based Ureas as Novel FLT3 Inhibitors” (ACS Med Chem Lett, 2020)
